Columns and labels:
[1] = biological target: T1, delF508-CFTR (Homo sapiens, UniProt P13569, DEL508-508); test: delF508-CFTR functional activity in primary human bronchial epithelial cells (HBECs), Multi-Transepithelial Clamp Circuit (MTECC-24) assay, equivalent short circuit current; format: cell-based; details: primary CF HBECs; for MTECC24 CFHBEC-Amax %: relative to reference combination 2 μM 3-(6-(1-(2,2-difluorobenzo[d][1,3]dioxol-5-yl)cyclopropane-1-carboxamido)-3-methylpyridin-2-yl)benzoic acid (24 h) + 0.5 μM N-(2,4-di-tert-butyl-5-hydroxyphenyl)-4-oxo-1,4-dihydroquinoline-3-carboxamide; for EC50: test compound added 24 h before assay, potentiator (S)-3-amino-6-methoxy-N-(3,3,3-trifluoro-2-hydroxy-2-methylpropyl)-5-(trifluoromethyl)picolinamide present at assay, mean of at least two replicates, read-out: MTECC24 CFHBEC-EC50
T1 construct: functional activity of the CFTR channel (Chloride ion transport) in patient derived primary human bronchial epithelial cells; host or cells: patient-derived primary human bronchial epithelial cells (HBECs), delF508-CFTR
How it was run: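 Compound acted as corrector on differentiated primary delF508-CFTR bronchial cultures, first 24 h basolaterally, then 45 min both sides before reading. Equivalent short circuit current was recorded during sequential forskolin and potentiator addition. EC50 came from 10-point, 1-in-3 dilution curves against the 0.1% DMSO baseline.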

[2] = biological target: T2, delF508-CFTR-HRP (Homo sapiens, UniProt P13569, DEL508-508); test: Measurement of delF508-CFTR-HRP surface expression in CFBE41o- cells (HRP luminescence); format: cell-based; details: for Emax: CFBE41o-, read-out: DelF508-CFTR-HRP Amax %; for EC50: mean of at least two replicates;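 as to DelF508-CFTR-HRP Amax %: percent efficacy relative to a reference CFTR corrector compound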
T2 construct: expressed in transfected cells
How it was run: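 EC50 derived by logistic regression of triplicate surface-HRP luminescence, plate-normalized to the lowest-concentration median. Doxycycline (500 ng/mL, 48 h) induced delF508-CFTR-HRP in CFBE41o- cells; compounds then applied 24 h at 37° C, 10 μM top, 3-fold over 10 points.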

T2 sequence (P13569 with tags, fused parts or gaps DEL508-508): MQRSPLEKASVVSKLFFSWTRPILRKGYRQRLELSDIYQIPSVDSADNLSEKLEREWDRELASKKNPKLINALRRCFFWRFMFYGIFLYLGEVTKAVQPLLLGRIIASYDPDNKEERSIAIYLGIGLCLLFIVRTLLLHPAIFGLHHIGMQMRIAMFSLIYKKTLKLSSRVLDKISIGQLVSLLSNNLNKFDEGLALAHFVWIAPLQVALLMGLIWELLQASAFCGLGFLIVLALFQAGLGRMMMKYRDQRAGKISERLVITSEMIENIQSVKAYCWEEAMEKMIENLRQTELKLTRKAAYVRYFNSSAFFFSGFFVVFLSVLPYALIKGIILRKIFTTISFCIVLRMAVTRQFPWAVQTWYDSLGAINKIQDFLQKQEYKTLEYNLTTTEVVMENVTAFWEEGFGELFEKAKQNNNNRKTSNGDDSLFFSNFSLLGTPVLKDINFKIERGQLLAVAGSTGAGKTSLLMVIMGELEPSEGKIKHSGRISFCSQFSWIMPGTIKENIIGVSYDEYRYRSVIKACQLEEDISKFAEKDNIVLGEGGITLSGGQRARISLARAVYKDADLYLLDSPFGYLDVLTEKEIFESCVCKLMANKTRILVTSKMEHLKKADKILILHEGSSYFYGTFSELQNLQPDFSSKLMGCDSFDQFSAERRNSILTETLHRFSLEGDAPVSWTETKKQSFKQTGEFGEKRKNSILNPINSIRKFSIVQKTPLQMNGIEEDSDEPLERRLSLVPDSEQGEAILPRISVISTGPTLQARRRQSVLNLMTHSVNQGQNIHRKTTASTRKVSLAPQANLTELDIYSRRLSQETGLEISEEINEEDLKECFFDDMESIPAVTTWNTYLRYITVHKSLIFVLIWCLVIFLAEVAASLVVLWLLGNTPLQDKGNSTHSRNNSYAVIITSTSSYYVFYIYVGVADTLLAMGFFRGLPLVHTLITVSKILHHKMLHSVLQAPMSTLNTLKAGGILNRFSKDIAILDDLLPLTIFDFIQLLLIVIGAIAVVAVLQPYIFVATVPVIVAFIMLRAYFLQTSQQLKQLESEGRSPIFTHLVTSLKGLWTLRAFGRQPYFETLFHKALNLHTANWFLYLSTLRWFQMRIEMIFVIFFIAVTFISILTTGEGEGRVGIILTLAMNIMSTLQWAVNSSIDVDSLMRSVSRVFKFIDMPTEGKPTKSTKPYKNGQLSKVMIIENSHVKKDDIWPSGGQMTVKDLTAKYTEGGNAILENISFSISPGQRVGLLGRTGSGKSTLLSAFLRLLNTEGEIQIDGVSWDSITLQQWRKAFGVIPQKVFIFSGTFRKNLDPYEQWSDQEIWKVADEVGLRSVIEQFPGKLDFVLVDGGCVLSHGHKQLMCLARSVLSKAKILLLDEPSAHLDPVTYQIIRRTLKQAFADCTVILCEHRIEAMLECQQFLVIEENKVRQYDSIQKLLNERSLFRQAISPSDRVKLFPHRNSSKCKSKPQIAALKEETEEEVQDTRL
T1 sequence (P13569 with tags, fused parts or gaps DEL508-508): as above

| SMILES | MTECC24 CFHBEC-Amax % [1] | EC50 [1] | Emax [2] | EC50 [2] |
| --- | --- | --- | --- | --- |
| Cc1ccc(C2CCC(F)(F)CC2)c(OC2(C(=O)NS(=O)(=O)c3cccc(N4CC(C)(NC(=O)OC(C)(C)C)C4)n3)CC2)c1 [Example 3-6, Tert-butyl (1-(6-(N-(1-(2-(4,4-difluorocyclohexyl)-5-methylphenoxy)cyclopropane-1-carbonyl)sulfamoyl)pyridin-2-yl)-3-methylazetidin-3-yl)carbamate] | 57% | 0.057 µM | 380% | 2.66 µM |
| Cc1ccc(C2CCC(F)(F)CC2)c(OC2(C(=O)NS(=O)(=O)c3cccc(NC[C@@H](C)O)n3)CC2)c1 [Example 3-4, (R)-1-(2-(4,4-Difluorocyclohexyl)-5-methylphenoxy)-N-((6-((2-hydroxypropyl)amino)pyridin-2-yl)sulfonyl)cyclopropane-1-carboxamide] | 87% | 0.092 µM | 318% | 3.85 µM |
| Cc1ccc(C2CCC(F)(F)CC2)c(OC2(C(=O)NS(=O)(=O)c3cccc(N4CCCC(CO)C4)n3)CC2)c1 (single isomer, unassigned) [Example 3-3-1] | 99% | 0.011 µM | 597% | 2.87 µM |
| Cc1ccc(C2CCCCC2)c(OC2(C(=O)NS(=O)(=O)c3cccc(N4CCO[C@H](C)C4)n3)CC2)c1 [Example 2-53, (R)-1-(2-Cyclohexyl-5-methylphenoxy)-N-((6-(2-methylmorpholino)pyridin-2-yl)sulfonyl)cyclopropane-1-carboxamide] | 82% | 0.002 µM | 416% | 1.59 µM |
| Cc1ccc(C2CCCCC2)c(OC2(C(=O)NS(=O)(=O)c3cccc(N4CCC(C(=O)O)CC4)n3)CC2)c1 [Example 2-6, 1-(6-(N-(1-(2-cyclohexyl-5-methylphenoxy)cyclopropanecarbonyl)sulfamoyl)pyridin-2-yl)piperidine-4-carboxylic acid] | 62% | 0.131 µM | 34% | 4.56 µM |
| O=C(NS(=O)(=O)c1cccc(N2CC(O)C2)n1)C1(Oc2cc(Cl)ccc2C2CCCCC2)CC1 [Example 2-57, 1-(5-Chloro-2-cyclohexylphenoxy)-N-((6-(3-hydroxyazetidin-1-yl)pyridin-2-yl)sulfonyl)cyclopropane-1-carboxamide] | 102% | 0.012 µM | 328% | 3.08 µM |
| C[C@]1(O)CCN(c2cccc(S(=O)(=O)NC(=O)C3(Oc4cc(Cl)ccc4N4CC5(CCCCC5)C4)CC3)n2)C1 [Example 9-7, (S)-1-(5-Chloro-2-(2-azaspiro[3.5]nonan-2-yl)phenoxy)-N-((6-(3-hydroxy-3-methylpyrrolidin-1-yl)pyridin-2-yl)sulfonyl)cyclopropanecarboxamide] | 131.1% | 0.123 µM | 472% | 0.58 µM |
